From patent publication US4678783A, “Substituted isoquinolinesulfonyl compounds” (Asahi Kasei Kogyo Kabushiki Kaisha, priority 1984, dated 1987) come the findings set out here.

The structures appear in SMILES notation. Where two headings read alike, the source gives them in different places.

The test system of data set [1] is mesenteric artery of a rabbit. Nature of the data set: Relaxation of Mesenteric Artery (KCl-contracted spiral strip). The arrangement: species or system rabbit of Japanese local variety. As to conditions: Oryctolagus cuniculus. As for the experimental part:
A rabbit of Japanese local variety weighing about 3 kg was subjected to blood-letting to death. Then, abdomen of the rabbit was dissected to pick up a mesenteric artery. […] Thus, the shrinkage and relaxation of the artery was ready to be measured as a load on the transducer. To the organ bath, KCl was added in an amount which makes the artery shrink at a half length that in 15 to 20 mM aqueous solution. Then, hydrochlorides of the compounds of the present invention were added to the organ bath to observe relaxation effect on the artery.
Effect of the compounds of the present invention on relaxation of mesenteric artery was examined according to the method as mentioned hereinbefore.

The test system of data set [2] is male spontaneously hypertensive rats (SHR). Nature of the data set: Reduction of Blood Pressure (systolic, tail plethysmographic method, oral). In kind it is in vivo, rat (SHR, Wister Kyoto). As to conditions: 100 mg/kg. As to the method:
Male spontaneously hypertensive rats (SHR, Wister Kyoto) weighing 300 to 350 g were used. Systolic blood pressure was measured indirectly by the tail plethysmographic method in conscious SHR, just prior to, and 1, 2, 4 and 6 hours after oral administration of test drugs. Test drugs, dissolved in deionized water, were administered orally in a volume of 10 ml-solution/kg-rat. Reduction in systolic blood pressure (ΔP, mmHg) was calculated by substracting a systolic blood pressure after administration from that just prior to administration.
Effect of the compounds of the present invention on reduction of blood pressure was examined according to the method as mentioned hereinbefore.

The nature of another data set: Acute Toxicity. As to conditions: mouse, in vivo; ddY male mice. As to the method:
Acute toxicity of the compounds of the present invention was determined according to the method given below, and the results are shown in Table 15. […] It is known from the results that the acute toxicity of the compounds of the present invention is satisfactorily low.
Using ddY male mice, acute toxicity of the compounds of the present invention was examined according to the method proposed by K. Takagi et al. (K. Takagi and H. Ozawa, "Experimental Techniques in Pharmacology," p200-206 (1960), NANZANDO CO., LTD.).
Acute toxicity test of the compounds of the present invention was effected according to the method as mentioned hereinbefore.

Another data set relates to femoral artery. Nature of the data set: Blood Flow Volume Increase of Femoral Artery. As to conditions: intravenous, anesthetized dogs. In kind it is in vivo, Mongrel dogs. As to the method:
(§1) A plethysmographic probe (manufactured and sold by NIHON KODEN CO., LTD.) was mounted on the femoral and vertebral arteries, and blood flow volume was measured by means of a electromagnetic blood flowmeter (type:MF-27, manufactured and sold by NIHON KODEN CO., LTD.). Under these conditions, compounds of the present invention were intravenously administered through a polyethylene tube inserted to a femoral veinlet, and change in blood flow volume was measured by means of the electromagnetic blood flowmeter.
(§2) Effect of the compounds of the present invention on dilation of femoral and vertebral arteries was examined according to the method as mentioned hereinbefore.

A further data set deals with vertebral artery. Description: Blood Flow Volume Increase of Vertebral Artery. As to conditions: intravenous, anesthetized dogs. In kind it is in vivo, Mongrel dogs. As for the experimental part: as §1, §2
The subject of a further data set is basilar artery. Nature of the data set: Effect on a "Two-Hemorrhage" Canine Model of Delayed Cerebral Vasospasm. In kind it is in vivo, Mongrel dogs. The settings on record: intravenous infusion over 30 minutes on Day 7. The source says: The isoquinolinesulfonyl compound represented by the formula (I) and salt thereof with a pharmacologically acceptable acid according to the present invention can increase the diameter of a blood vessel, and have an excellent smooth muscle relaxation action for a blood vessel, an excellent flow volume increase action for blood and an antihypertensive action. […] The above-mentioned relaxation action for a blood vessel was confirmed by the relaxation of the mesenteric artery of a rabbit in accordance with the method described later. The above-mentioned flow volume increase action for blood was confirmed by the blood flow volume increase of dog's femoral and vertebral arteries in accordance with the method described later. The above-mentioned antihypertensive action was confirmed by the indirect tail plethysmographic method of systolic blood pressure after oral administration of test drugs using male spontaneously hypertensive rats in accordance with the method described later. The effects of the isoquinolinesulfonyl derivatives of this invention on a "two-hemorrhage" canine model of delayed cerebral vasospasm were examined. The method of inducing a cerebral vasospasm was the same as that reported by Varsos et al. (Journal of Neurosurgery, volume 58, p11-17, 1983). […] As far as is known, these isoquinolinesulfonyl derivatives are the first drugs which can reverse "two-hemorrhage" cerebral vasospasm by its systemic use.
Mongrel dogs of either sex weighing 7 to 11 kg were used. All procedures were performed under anesthesia with sodium pentobarbital (20 to 30 mg/kg, intravenous administration) after premedication with ketamine hydrochloride (12 mg/kg, intramuscular administration) and spontaneous respiration through an endotracheal intubation.
The method of inducing a "two-hemorrhage" canine model of subarachnoid hemorrhage was essentially the same as that reported by Varsos et al. (Journal of Neurosurgery, volume 58, p 11-17, 1983); two successive administrations were effected, two days apart (on Day 1 and Day 3), of fresh autogenous blood into the cisterna magna. A control angiogram was taken by a direct puncture of the vertebral artery on Day 1 before the blood injection. The second angiogram was made to confirm the presence of a vasospasm on Day 7.
On Day 7, after the occurrence of a chronic vasospasm was confirmed by the second angiogram, the compounds of the present invention were intrvenously infused from the femoral vein with a Harvard pump over a period of 30 minutes. Angiograms were taken from the initiation of the infusion.
The diameter of the basilar artery was measured on the angiogram by means of a microdensitometer (SAKURA DENSITOMETER PD-7R). The effect on this cerebral vasospasm model of the compounds of the present invention was expressed as an increased percentage of the diameter after the infusion of the compounds of the present invention to that before the infusion.
Effect of the compounds of the present invention on a "two-hemorrhage" canine model of delayed cerebral vesospasm was examined according to the method as mentioned hereinbefore.

Where [3] appears, read: concentration of the hydrochloride attaining 50% of complete relaxation, rabbit mesenteric artery contracted with KCl, read-out: ED50 (the source's name).

The LD50 is the dose at which mortality reaches 50%. Lower therefore signals a more toxic substance. As for `CC1CN(S(=O)(=O)c2cccc3cnccc23)CCCN1` (stereo not shown) [(3), 1-(5-isoquinolinesulfonyl)-3-methylhomopiperazine], in data set [1] (setting [3]), the EC50 stood at 1600 nM. The “ΔPmax (maximally reduced blood pressure)” value in data set [2] was determined as 65 mmHg. Also, the 50% lethal dose (LD50) in the data set “Acute Toxicity” was determined as 120 mg/kg. Also, in the data set on femoral artery (0.3 mg/kg), the “Increase in femoral artery blood flow” value is 35%. The “Increase in vertebral artery blood flow” value with vertebral artery (0.3 mg/kg) is 78%.

For `O=S(=O)(c1cccc2cnccc12)N1CCCNCC1` [Compound (1), 1-(5-isoquinolinesulfonyl)homopiperazine], in data set [1] (setting [3]), the EC50 was 800 nM. Also, the figures for the “Increase in diameter of basilar artery” value in the data set on basilar artery (1 mg/kg), with basilar artery (3 mg/kg) and in the data set with basilar artery (10 mg/kg) were 21%, 33% and 45%, respectively. Further, in data set [2], the “ΔPmax (maximally reduced blood pressure)” value was 80 mmHg. The median lethal dose (LD50) in “Acute Toxicity” was 73.5 mg/kg. Further, the “Increase in femoral artery blood flow” value with femoral artery (0.3 mg/kg) was determined as 48%. Further, the “Increase in vertebral artery blood flow” value in the data set on vertebral artery (0.3 mg/kg) is listed as 160%.

As for `O=S(=O)(c1cccc2cnccc12)N1CCNCC(Cc2ccccc2)C1` (stereo not shown) [Compound (18), 1-(5-isoquinolinesulfonyl)-6-benzylhomopiperazine], the EC50 in data set [1] (setting [3]) worked out at 10000 nM. Also, in data set [2], the “ΔPmax (maximally reduced blood pressure)” value was found to be 43 mmHg. In the data set “Acute Toxicity”, this molecule showed a median lethal dose (LD50) of 197 mg/kg. Besides, in the data set on femoral artery (0.3 mg/kg), the “Increase in femoral artery blood flow” value was found to be 45%. Also, the “Increase in vertebral artery blood flow” value in the data set on vertebral artery (0.3 mg/kg) was found to be 110%.

Regarding `O=S(=O)(c1cccc2c(O)nccc12)N1CCCNCC1` [Compound (83), 1-(1-hydroxy-5-isoquinolinesulfonyl)homopiperazine], in data set [1] (read-out: ED50), the EC50 worked out at 3000 nM. Further, the “Increase in diameter of basilar artery” value in the data set with basilar artery (3 mg/kg) was determined as 19%; in the data set on basilar artery (10 mg/kg) it was 20%. In data set [2], the “ΔPmax (maximally reduced blood pressure)” value is on record as 42 mmHg. Besides, the LD50 in the data set “Acute Toxicity” stood at 145 mg/kg. In addition, the “Increase in femoral artery blood flow” value in the data set on femoral artery (0.3 mg/kg) is 30%. In the data set on vertebral artery (0.3 mg/kg), the “Increase in vertebral artery blood flow” value turned out to be 48%.

For `O=S(=O)(c1cccc2cnccc12)N1CCNCC1` [compound 2, reference compound], in data set [2], the “ΔPmax (maximally reduced blood pressure)” value is 11 mmHg. In the data set “Acute Toxicity”, the median lethal dose (LD50) stood at 29 mg/kg. The results for the “Increase in femoral artery blood flow” value in the data set with femoral artery (0.3 mg/kg) and with femoral artery (1 mg/kg) were 20% and 69%, respectively. In addition, the “Increase in vertebral artery blood flow” value with vertebral artery (0.3 mg/kg) is on record as 36%; in the data set with vertebral artery (1 mg/kg), 98%.
